Experimental data taken from the NIST ThermoML archive (doi:10.1016/j.fluid.2007.06.017).
Numbers after ± are expanded uncertainties.

Conditions: Crystal; DTA

CCCCCCCCCCCCCC[P+](CCCCCC)(CCCCCC)CCCCCC.O=S(=O)([N-]S(=O)(=O)C(F)(F)F)C(F)(F)F
Normal melting temperature: 33.00 ± 1 °C
